This is an account of results in ChEMBL document CHEMBL4024755, “Pharmacophore Hybridization To Discover Novel Topoisomerase II Poisons with Promising Antiproliferative Activity” (J Med Chem, 2018).

Usually IC50 stands for the midpoint of a concentration-inhibition curve.

The species named for experiment [1] is Bos taurus. In words: Binding affinity to calf thymus DNA at 50 uM by UV-spectrophotometric analysis.
The target in experiment [2] is T1, DNA topoisomerase 2-alpha (Homo sapiens, UniProt P11388). Nature of the experiment: Inhibition of human topoisomerase 2alpha expressed in baculovirus-infected insect cells assessed as reduction in pBR322 supercoiled DNA relaxation after 60 mins by ethidium bromide staining based agarose gel electrophoresis.
T1 sequence (P11388 whole entry): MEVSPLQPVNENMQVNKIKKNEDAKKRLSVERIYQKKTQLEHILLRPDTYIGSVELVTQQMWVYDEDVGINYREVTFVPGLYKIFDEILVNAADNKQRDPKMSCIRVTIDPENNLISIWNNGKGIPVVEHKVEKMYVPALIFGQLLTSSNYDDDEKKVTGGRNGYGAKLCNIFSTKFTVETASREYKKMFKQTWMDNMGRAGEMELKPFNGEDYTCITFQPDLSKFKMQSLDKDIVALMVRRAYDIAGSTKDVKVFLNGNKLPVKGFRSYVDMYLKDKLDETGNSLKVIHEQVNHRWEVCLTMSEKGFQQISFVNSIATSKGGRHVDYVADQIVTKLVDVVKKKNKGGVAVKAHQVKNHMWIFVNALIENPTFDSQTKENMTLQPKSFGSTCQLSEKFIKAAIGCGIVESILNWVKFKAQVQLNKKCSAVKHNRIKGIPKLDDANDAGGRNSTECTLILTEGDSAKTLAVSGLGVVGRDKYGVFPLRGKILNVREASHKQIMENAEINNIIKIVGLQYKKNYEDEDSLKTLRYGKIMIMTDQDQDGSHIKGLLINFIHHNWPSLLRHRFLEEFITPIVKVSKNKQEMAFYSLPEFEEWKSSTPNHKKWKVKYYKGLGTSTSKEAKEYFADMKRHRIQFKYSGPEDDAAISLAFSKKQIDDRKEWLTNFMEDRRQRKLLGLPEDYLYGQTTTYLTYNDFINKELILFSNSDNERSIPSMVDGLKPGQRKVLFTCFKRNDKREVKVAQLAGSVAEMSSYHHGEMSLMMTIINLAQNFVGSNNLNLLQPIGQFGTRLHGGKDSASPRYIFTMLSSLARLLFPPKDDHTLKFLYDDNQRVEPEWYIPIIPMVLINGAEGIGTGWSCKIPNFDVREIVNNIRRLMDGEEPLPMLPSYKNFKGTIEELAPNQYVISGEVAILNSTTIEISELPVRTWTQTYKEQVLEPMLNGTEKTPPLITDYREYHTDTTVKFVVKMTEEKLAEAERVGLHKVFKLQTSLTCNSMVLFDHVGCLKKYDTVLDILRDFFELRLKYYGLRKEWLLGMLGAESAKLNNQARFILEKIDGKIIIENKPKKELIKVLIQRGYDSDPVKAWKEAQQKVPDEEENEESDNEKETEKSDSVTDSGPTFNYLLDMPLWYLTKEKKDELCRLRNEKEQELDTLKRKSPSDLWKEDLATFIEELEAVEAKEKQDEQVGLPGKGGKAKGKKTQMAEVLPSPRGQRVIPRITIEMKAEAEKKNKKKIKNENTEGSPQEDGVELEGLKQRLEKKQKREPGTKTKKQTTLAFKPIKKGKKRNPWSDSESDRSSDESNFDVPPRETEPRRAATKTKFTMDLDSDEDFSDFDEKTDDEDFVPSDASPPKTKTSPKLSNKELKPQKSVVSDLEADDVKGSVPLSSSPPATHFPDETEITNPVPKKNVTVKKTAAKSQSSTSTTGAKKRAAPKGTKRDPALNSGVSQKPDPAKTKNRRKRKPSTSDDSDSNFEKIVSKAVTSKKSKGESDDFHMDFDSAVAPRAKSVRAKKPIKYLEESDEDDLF
The species named for experiment [3] is Bos taurus. In words: Binding affinity to calf thymus DNA in absence of topo2 enzyme by circular dichroism titration analysis. (CD spectra are sensitive to the conformation of chiral molecules.)
The target in experiment [4] is T1, DNA topoisomerase 2-alpha. Nature of the experiment: Poison activity at human Topo2alpha expressed in baculovirus-infected insect cells using pBR322 as substrate assessed as concentration required to observe the same amount of topo2/DNA cleavage complex generated by etoposide at 20 uM after 6 minutes by ethidium bromide staining based agarose gel electrophoresis.

The next experiment has as its system DU-145. In words: Antiproliferative activity against human DU145 cells after 72 hrs by MTT assay. The experiment is classed as functional, cell-based. Particulars: DU-145, 72 h. (In general: Formazan colour is commonly taken as a measure of viable cells.)
A further experiment concerns MCF7. Nature of the experiment: Antiproliferative activity against human MCF7 cells after 72 hrs by MTT assay. Format: functional, cell-based. Particulars: MCF7, 72 h.
Another experiment deals with A549. In words: Antiproliferative activity against human A549 cells after 72 hrs by MTT assay. The experiment is classed as functional, cell-based. Particulars: A549, 72 h.
In experiment [5] the test system is HeLa. In words: Antiproliferative activity against human HeLa cells after 72 hrs by MTT assay. The experiment is classed as functional, cell-based.
Experiment [6] deals with HeLa. Nature of the experiment: Inhibition of human of DNA topoisomerase 2 in human HeLa cells assessed as induction of H2AX phosphorylation at 10 uM after 90 mins by NuPAGE based electrophoresis. The experiment is classed as cell-based.
For experiment [7], the target named is T1, DNA topoisomerase 2-alpha. Nature of the experiment: Poison activity at human Topo2alpha expressed in baculovirus-infected insect cells using pBR322 as substrate assessed as topo2/DNA cleavage complex generation after 6 minutes by ethidium bromide staining based agarose gel electrophoresis.

Activity calls are given as the source filed them. The calls are words filed in the database; no cut-off is given here.

On to `COc1cc(NC(=O)c2c(O)n(-c3ccccc3)c(=S)n(-c3ccccc3)c2=O)cc(OC)c1O`, for which the outcome in the experiment listed under Bos taurus [1] and in the experiment listed under Bos taurus [3] was inactive. The IC50 in experiment [2] is 120 µM; with DU-145 it was 26.7 µM; with MCF7, 53.5 µM; with A549 it was 17.5 µM; in the experiment with HeLa [5], 18.1 µM. Moreover, the Activity in experiment [4] worked out at 200 µM.
Consider `COc1cccc(NC(=O)c2c(O)n(-c3ccccc3)c(=S)n(-c3ccccc3)c2=O)c1`, for which the result in the experiment filed under Bos taurus [1] and in the experiment filed under Bos taurus [3] was inactive. Further, the IC50 in [2] is 30 µM; with DU-145, 12.5 µM; with MCF7, 14 µM; in the experiment with A549, 6.9 µM; in the experiment with HeLa [5], 8.5 µM. The Activity in experiment [4] is 100 µM.
With `O=C(Nc1ccccc1)c1c(O)n(-c2ccccc2)c(=S)n(-c2ccccc2)c1=O`, the result in the experiment filed under Bos taurus [1] and in the experiment filed under Bos taurus [3] was inactive. Also, the half-maximal inhibitory concentration (IC50) in experiment [2] is 5 µM; in the experiment with DU-145, 16.8 µM; in the experiment with MCF7, 13.6 µM; in the experiment with A549 it was 9.2 µM; in the experiment on HeLa [5], 10.8 µM. Further, in experiment [4], the Activity is 200 µM. For the same molecule, the inhibition result in the experiment with HeLa [6] was “Active”.
Take `O=C(Nc1cccc(O)c1)c1c(O)n(-c2ccccc2)c(=S)n(-c2ccccc2)c1=O`: the outcome (in experiment [7]; in the experiment filed under Bos taurus [1]; in the experiment filed under Bos taurus [3]) was inactive. The IC50 amounted to 200 µM in [2]; 49.6 µM with DU-145; 94.2 µM with MCF7; 59.4 µM with A549; 39.1 µM in the experiment with HeLa [5].
Regarding `O=C(Nc1ccc(O)cc1)c1c(O)n(-c2ccccc2)c(=S)n(-c2ccccc2)c1=O`, the outcome in the experiment listed under Bos taurus [1] and in the experiment listed under Bos taurus [3] was inactive. For the same molecule, the IC50 worked out at 150 µM in experiment [2]; 42.5 µM with DU-145; 66.1 µM in the experiment on MCF7; 37.1 µM with A549; 42.9 µM in the experiment with HeLa [5]. The Activity in experiment [4] was 200 µM.
`O=C1NC(=S)NC(=O)C1C(=O)Nc1ccccc1` [MERBARONE]: the outcome (in experiment [7]; in the experiment filed under Bos taurus [1]) was inactive. Moreover, the IC50 in experiment [2] was 120 µM; in the experiment with DU-145, 18.9 µM; in the experiment on MCF7, 83.9 µM; in the experiment with A549, 40 µM; with HeLa [5] it was 62.3 µM.
For `COc1cc([C@@H]2c3cc4c(cc3[C@@H](O[C@@H]3O[C@@H]5CO[C@@H](C)O[C@H]5[C@H](O)[C@H]3O)[C@H]3COC(=O)[C@H]23)OCO4)cc(OC)c1O` [ETOPOSIDE], the result in the experiment listed under Bos taurus [1] was inactive. The IC50 in the experiment on DU-145 worked out at 1 µM; in the experiment on MCF7 it was 10.5 µM; in the experiment on A549, 1.3 µM; in the experiment with HeLa [5] it was 2.4 µM.
